According to PubChem BioAssay (NCI):
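Where inhibition never reached the appropriate level, the endpoint shown equals the highest concentration tested. Otherwise, values were interpolated linearly from a five-concentration, 48-hour dose response in 96-well plates. The concentration for 50% growth inhibition is given as GI50. TGI: concentration producing complete growth inhibition.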

How the values were obtained:
Test in all cases: NCI anticancer screen, dose series, 48 h
KM12 colon = test system: KM12 colon
SW-620 colon = test system: SW-620 colon
MALME-3M melanoma = test system: MALME-3M melanoma
EKVX NSCLC = test system: EKVX NSCLC
HCC-2998 colon = test system: HCC-2998 colon
LOX IMVI melanoma = test system: LOX IMVI melanoma
M14 melanoma = test system: M14 melanoma
UACC-257 melanoma = test system: UACC-257 melanoma
SN12C renal = test system: SN12C renal
UO-31 renal = test system: UO-31 renal

Structure (SMILES)	GI50 (KM12 colon)	TGI (KM12 colon)	GI50 (SW-620 colon)	TGI (SW-620 colon)	GI50 (MALME-3M melanoma)	TGI (MALME-3M melanoma)	GI50 (EKVX NSCLC)	TGI (EKVX NSCLC)	GI50 (HCC-2998 colon)	TGI (HCC-2998 colon)	GI50 (LOX IMVI melanoma)	TGI (LOX IMVI melanoma)	GI50 (M14 melanoma)	TGI (M14 melanoma)	GI50 (UACC-257 melanoma)	TGI (UACC-257 melanoma)	GI50 (SN12C renal)	TGI (SN12C renal)	GI50 (UO-31 renal)	TGI (UO-31 renal)
C[C@@H]1CC[C@H]2[C@@H](C)C(O)O[C@@H]3O[C@]4(C)CC[C@@H]1[C@]32OO4 (stereo not given in full)	0.213 µM	8.78 µM	0.347 µM	17 µM	1.54 µM	> 66.1 µM	0.65 µM	17.2 µM	2.6 µM	> 63.2 µM	0.309 µM	0.973 µM	1.24 µM	24.2 µM	0.748 µM	> 100 µM	1.37 µM	> 72.3 µM	0.375 µM	2.31 µM
CCCCC(C(=O)C(=O)Nc1ccc(C)cc1C)C(=O)C(C)C (stereo not given)		> 100 µM		> 100 µM		> 100 µM		> 100 µM		> 100 µM		> 100 µM		> 100 µM		> 100 µM		> 100 µM		> 100 µM
C#CCN(N=O)C(=O)NC(CCCCNC(=O)OCc1ccccc1)C(=O)OCc1ccccc1 (stereo not given)		> 100 µM		41 µM		65.1 µM		55.3 µM		> 100 µM		59.1 µM		56.6 µM		79.5 µM		97.9 µM		87 µM
COc1ccc(C(=O)/C=C/c2sc(Cl)nc2Cl)cc1	2.75 µM	7.54 µM	0.613 µM	2.79 µM	0.805 µM	3.33 µM	3.67 µM	14.8 µM	1.72 µM	3.31 µM	0.33 µM	1.36 µM	0.466 µM	2.96 µM	3.26 µM	12.7 µM	0.408 µM	3.19 µM	1.45 µM	2.9 µM
CNC(=O)c1cc(Oc2ccc3nc(NC(=O)Nc4ccc(CN5CCOCC5)c(C(F)(F)F)c4)sc3c2)ccn1	0.446 µM	2.31 µM	3.31 µM	10 µM	1.44 µM	3.98 µM	2.1 µM	7.55 µM	3 µM	7.11 µM	1.82 µM	4.34 µM	2.48 µM	6.53 µM	2.16 µM	5.59 µM	2.58 µM	9.36 µM	1.65 µM	3.94 µM
Nc1nc(=O)n(C2CC(O)C(CO)O2)cc1F (stereo not given)	> 66.3 µM	> 100 µM		> 100 µM	> 100 µM	> 100 µM		> 100 µM	0.000943 µM	> 26.4 µM	0.01 µM	> 100 µM	0.222 µM	> 100 µM	> 100 µM	> 100 µM	0.199 µM	> 25.8 µM		> 43.3 µM
O=C(NCCCCCCCCCCCCNC(=O)c1cnc2ccccc2n1)c1cnc2ccccc2n1		> 100 µM		> 100 µM		> 100 µM		> 100 µM		> 100 µM		> 100 µM		> 100 µM		> 100 µM		> 100 µM		86.1 µM
Oc1ccc2ccccc2c1CCc1c(O)ccc2ccccc12		24.8 µM		28.4 µM		26.9 µM		26.4 µM		21.8 µM		28 µM		29.5 µM		27.2 µM		23.3 µM		
CCCCCC/C=C/C#CCCCCCCCC(=O)O		> 100 µM		> 100 µM		> 100 µM		> 100 µM		> 100 µM		> 100 µM		> 100 µM		> 100 µM		> 100 µM		
COc1cc(/C=C/C(=O)c2cccc3ccccc23)cc(OC)c1OC				7.32 µM		24.9 µM		28.7 µM		28.2 µM		12.1 µM		19.1 µM		19.7 µM		12.5 µM		30.5 µM
Cc1cc(F)c(C(=O)Nc2cccc(-c3nncn3C(C)C)n2)cc1-n1cnc(C2CC2)c1	20.7 µM	95.6 µM	20.8 µM	> 100 µM	23.3 µM	72.1 µM	13.1 µM	52.3 µM	14.3 µM	> 100 µM	14.4 µM	35.9 µM			32.8 µM	85.7 µM	15.6 µM	62.4 µM	3.05 µM	23.7 µM
CC/C=C\C[C@H]1C/C=C2/C(=O)C=C[C@H]2C/C=C\CCCC(=O)O1			2.58 µM	10.4 µM	7.81 µM	17.4 µM	4.89 µM	15.7 µM	2.37 µM	8.43 µM	1.68 µM	6.7 µM	1.69 µM	8.34 µM	5.04 µM	12 µM	2.62 µM	> 50 µM	4.87 µM	11.2 µM
